Starred links: 1 amine or outer side, 2 acyl side, 3 side chain; linkers in the order of their positions; H or OH if unused. Positions of bridges follow the written chain, without caps; N, C: chain ends. Non-standard residues stand in square brackets, D forms with d. Residues, ends and D or L forms follow the SMILES beside them. Leu(3R-O(AcLeu(3R-OH))) = CC(=O)N[C@H](C(=O)O[C@H](C(C)C)[C@H](N)C(=O)O)[C@H](O)C(C)C; X1 = CO[C@H](C)C(C(=O)[*:2])N(C)[*:1]; dPhLac = O=C(O)[C@H](O)Cc1ccccc1; NMeA = CN[C@@H](C)C(=O)O; NMeDha = C=C(NC)C(=O)O
Columns and labels:
[1] = tested on: tobacco smoke inhalation-induced airway inflammation; experiment: Action of nasal drop administration on the tobacco smoke inhalation-induced airway inflammation; type: in vivo, BALB/c male mice; settings: mice, nasal drop 1, 10 and 100 μg/kg once a day; bronchoalveolar lavage cell count at Day 11
Experimental: BALB/c male mice (Charles River Laboratories Japan, Inc.) were used in experiments. Sodium pentobarbital (40 mg/kg) was administered intraperitoneally to the mice for anesthesia. During a period of time ranging from Day 0 to Day 10 (except for Days 5 and 6), the test compound (1, 10, and 100 μg/kg) were administered nasally to the mice once a day. The Vehicle group was similarly injected with physiological saline by nasal drop administration. There were 10 animals in each group. The mice were put into chambers at 1 hour after nasal drop administration, and using a tobacco smoke generator (SG-200, Sibata Scientific Technology Ltd.), the tobacco smoke was inhaled to a concentration in air up to 4% for 1 hour. After intraperitoneal administration of sodium pentobarbital (80 mg/kg) to the mice at Day 11, the mice were subject to blood removal to be euthanized. After respiratory arrest, the trachea was incised, bronchoalveolar lavage was performed with PBS(−) 0.5 mL×3 times, and the washing liquid was collected. The supernatant was removed by centrifugation, the cells were then resuspended in PBS(−), and for white blood cells (WBC), neutrophils (NEUT), lymphocytes (LYMPH), macrophages (MONO), and eosinophils (EO), the cell count was measured with a Multiple Parameter Automatic Hematology Analyzer (XT-2000i, Sysmex Corporation).

blood pressure = settings: intravenous 30 μg/kg, Non-Patent Citation 4; cited from earlier work
carotid artery pressure = experiment: Action on the carotid pressure by intratracheal administration; type: in vivo, SD male rats; settings: rats
Experimental: SD male rats (Charles River Laboratories Japan, Inc.) were used in experiments. Urethane (1.2 g/kg) was administered intraperitoneally to the rats for anesthesia. Cannulation for […] was carried out in the carotid artery and a pressure transducer (TP-400T, Nihon Kohden Corporation) was connected. The cannula for measuring blood pressure and a pressure transducer were filled with 5% heparin physiological saline. The pressure signal was amplified with a strain pressure amplifier (AP-601G, Nihon Kohden Corporation) and recorded on chart paper by a thermal pen recorder (WT-685G, Nihon Kohden Corporation). The body temperature of the rats was maintained at 37° C. using a body temperature-maintaining device (BWT-100, Bio Research Center). The trachea was exposed, and using needles (27 G), the test compounds (30 or 100 μg/kg) at a volume of 0.5 mL/kg or physiological saline was administered by direct intratracheal injection. For the group administered with 30 μg/kg, 5 animals were used, for the group administered with 100 μg/kg, 1 animal was used, and for the group administered with physiological saline, 3 animals were used. For 30 minutes after intratracheal administration, a mean blood pressure was measured.

Gq and G11 = settings: Non-Patent Citation 3; cited from earlier work
Gq/11 = experiment: Inhibitory action on Gq/11: LTD4-induced cellular Ca2+ change in CHO cells stably expressing CysLTR2 (FLIPR); type: cell-based; settings: read-out: Gq/11 inhibitory activities (IC50 values), 10 nM LTD4, maximum Fluo-4 fluorescence intensity
Experimental: The test was carried out according to the method of Non-Patent Citation 3, using a leukotriene receptor CysLTR2 (cysteinyl leukotriene receptor 2), which is known to activate Gq/11. CHO cells stably expressing CysLTR2 were seeded on a 96-well black/clear bottom plate (manufactured by Becton, Dickinson and Company) at 20,000 cells per well, and after 24 hours of seeding, the medium was discarded. Then, Hanks BSS (GIBCO Inc.) including 2 μM Fluo-4, AM (manufactured by Molecular Probe Co.), 0.004% pluronic acid, 1% FBS, 20 mM HEPES, and 2.5 mM probenecid was added thereto at 100 μL per well, followed by incubation at 37° C. for 1 hour. After incubation, the resultant was washed four times with Hanks BSS including 20 mM HEPES, and Hanks BSS including 20 mm HEPES per well was added thereto 100 μL per well. In addition, 50 μL of a test compound that had been diluted with Hanks BSS including 20 mM HEPES to a final concentration from 1×10^−10 M to 1×10^−5 M was added thereto, followed by being left to stand at room temperature for 30 minutes. The change of cellular Ca^2+ concentration after addition of leukotriene D4 (LTD4, manufactured by Cayman Co.), which is a CysLTR2 ligand, was measured over time using an FLIPR (Molecular Device Corp.). 50 μL it of leukotriene D4 that had been diluted with Hanks BSS including 20 mM HEPES to a final concentration of 10 nM at 10 seconds after the initiation of measurement was added thereto, fluorescence intensities were measured every second for 50 seconds and every sixth second for 2 minutes, and a maximum fluorescence intensity during a measurement time of 3 minutes was observed. By plotting the concentrations and the fluorescence intensities of the test compounds, the IC50 values were calculated, which were taken as Gq/11 inhibitory activities.

[2] = intratracheal 100 μg/kg, 1 animal

With `C=C1C(=O)N[C@@H](C)C(=O)N(C)[C@@H](C)C(=O)N[C@@H]([C@H](OC(=O)[C@@H](NC(C)=O)[C@H](O)C(C)C)C(C)C)C(=O)N(C)C([C@@H](C)OC)C(=O)O[C@H](C)[C@H](NC(C)=O)C(=O)O[C@H](Cc2ccccc2)C(=O)N1C` (stereo partly drawn) [Ref 1] (Ac-T[dPhLac][NMeDha]A[NMeA][Leu(3R-O(AcLeu(3R-OH)))][X1]; ester 1-C) the “infiltration of eosinophils into the airway” value [1] was “significantly inhibited”, the “infiltration of lymphocytes into the airway” value [1] was “significantly inhibited” and the “infiltration of neutrophils into the airway” value [1] was “significantly inhibited”. For the same compound, the hypotensive action (blood pressure) was “hypotensive action”, the “amount having no action on the carotid artery pressure” value (carotid artery pressure; intratracheal) was “at least 30 μg/kg” and the “Reduction in blood pressure After 10 min” value (carotid artery pressure; intratracheal 30 μg/kg) was 7±5.2 mmHg. For the same compound, the “Reduction in blood pressure Max in 30 min” value (carotid artery pressure; intratracheal 30 μg/kg) was 22±3.3 mmHg, the “reduction in blood pressure compared with physiological saline group” value (carotid artery pressure; intratracheal 30 μg/kg) was “no significant difference” and the “reduction in blood pressure (in words)” value (carotid artery pressure; intratracheal 100 μg/kg) was “remarkable reduction in blood pressure”. For the same compound, the “Reduction in blood pressure After 10 min” value (carotid artery pressure; [2]) was 65 mmHg, the “Reduction in blood pressure Max in 30 min” value (carotid artery pressure; [2]) was 95 mmHg and the “gap between maximum amount having no action on carotid artery pressure and ED50 of inhibitory action on airway contraction” value (carotid artery pressure; intratracheal, 30 μg/kg vs 0.73 μg/kg) was “at least 40 times”. For the same compound, the “inhibition of Gq and G11” value (Gq and G11) was “strongly inhibits” and the IC50 (Gq/11) was 0.066 µM.
